As usually defined, the inhibition is the percentage by which the read-out fell short of the control. The low end stands for a weak effect, the high end for a strong effect.

In the first test the target is T1, hDGAT1 (Homo sapiens, UniProt O75907).
T1 construct: host or cells: Sf9 insect cells (baculovirus); microsomal preparation
T1 sequence (O75907 1-488): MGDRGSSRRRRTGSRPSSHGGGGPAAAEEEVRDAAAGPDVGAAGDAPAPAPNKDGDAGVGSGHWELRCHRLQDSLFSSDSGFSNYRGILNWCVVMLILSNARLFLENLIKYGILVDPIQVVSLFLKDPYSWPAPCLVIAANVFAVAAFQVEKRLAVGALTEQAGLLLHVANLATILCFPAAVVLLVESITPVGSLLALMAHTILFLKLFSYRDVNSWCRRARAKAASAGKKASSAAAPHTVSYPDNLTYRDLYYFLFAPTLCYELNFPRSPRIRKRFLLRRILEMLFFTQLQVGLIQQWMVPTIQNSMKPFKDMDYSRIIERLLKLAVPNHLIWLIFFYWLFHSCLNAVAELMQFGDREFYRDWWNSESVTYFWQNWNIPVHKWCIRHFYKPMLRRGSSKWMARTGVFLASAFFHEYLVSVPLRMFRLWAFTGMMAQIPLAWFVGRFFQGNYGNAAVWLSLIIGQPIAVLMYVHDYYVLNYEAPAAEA
The test can be described thus: In-vitro DGAT1 assay (hDGAT1 microsomes from Sf9 cells, 14C oleoyl CoA, triglyceride formation). It is filed as biochemical. Conditions: At 1 μM. The procedure: In-vitro Protocol for DGAT1 Assay
Sf9 Culture and Treatment
Sf9 cells were grown in T25 flasks containing Graces's Insect media with 10% FBS with antibiotic (100 units/mL penicillin, 100 μg/mL streptomycin sulphate, 0.25 μg/mL Amptotericin B as Fungizone) grown in a 27° C. incubator:
hDGAT1ORF expression clone (RZPDo839C09146 in pDEST vector) was obtained from RZPD, Germany. hDGAT1 bacmid DNA was obtained by transformation of the hDGAT expression clone into DH10Bac E. coli competent cells. Approximately 1 μg of hDGAT1 bacmid DNA was infected into Sf9 cells with Cellfectin (Invitrogen) reagent. Following infection, Sf9 cells were incubated at 27° C. for 30 minutes. Five hours after infection, the media was replaced with growth media containing antibiotic (100 units/mL penicillin, 100 μg/mL streptomycin sulphate, 0.25 μg/mL Amptotericin B as Fungizone) and incubated at 27° C. for 72 hours. The supernatant containing the virus was centrifuged at 1500×g for 5 minutes, passed through 0.22 μm filter, and subsequently stored at 4° C. The virus was further amplified three more times by re-infection of Sf9 cells and the viral titer was determined by plaque assay.
Preparation of DGAT1 Microsomes from Sf9 Cells
Sf9 cells were seeded in spinner flasks on day 0 at a cell density of 1×10^6 and infected on day 1 with hDGAT1 baculovirus at a multiplicity of infection (MOI) of 5 and a cell density of 2×10^6. On day 3 (or 66-72 hours), cells were harvested and centrifuged at 2500×g for 10 minutes. Pellet was resuspended in lysis buffer (100 mM sucrose, 50 mM KCl, 40 mM KH2PO4, 30 mM EDTA, pH 7.2) and passed through 21-gauge needle approximately 10 times. The mixture was centrifuged at 12,000 rpm in a Sigma 12158-H rotor at 4° C. for 30 minutes. The supernatant was subjected to centrifugation at 35,000 rpm in a Beckman Ti-45 rotor at 4° C. for 1 hour. The resultant pellet containing the microsomes were resuspended overnight in 1 mL of lysis buffer and total protein concentration was estimated using Bradford Reagent. Microsomes were aliquoted and stored at −20° C.
Measurement of DGAT1 Activity
Frozen aliquots of hDGAT1 containing microsomes were thawed (5-10 mg/mL total protein) on ice and diluted to a working stock of 1 mg/mL with DGAT Assay Buffer (DAB). The DGAT reaction assay was performed by following the procedure described in U.S. Pat. No. 6,607,893 with some modifications that are described below.
Preparation of DGAT1 substrate mixture: 1 mL stock solution of DGAT1 substrate mixture contains (i) 5.6 μL of ^14C oleoyl CoA (16.8 nCi) and 35 μL 1,2-dioleoyl-sn-glycerol (409.5 μM) or (ii) 5.6 μL of ^14C oleoyl CoA (16.8 nCi) and 105 μL 1,2-dioleoyl-sn-glycerol (1228.5 μM) or (iii) 5.6 μL of ^14C oleoyl CoA (16.8 nCi) and 140 μL 1,2-dioleoyl-sn-glycerol (1638 μM).
1,2-sn-dioleoylglycerol substrate concentration in the 1 mL stock solution of DGAT1 substrate mixture was varied depending on the microsome concentration used in the assay reaction. 1,2-dioleoyl-sn-glycerol stock (19.5 mM) was prepared by dissolving 25 mg of 1,2-dioleoyl-sn-glycerol (Sigma, US) in 2060 μL of acetone. The assay was performed in duplicates in a reaction volume of 100 μL. The reaction volume consisted of: • (i) 27.5 μL of DGAT assay buffer (0.25M Sucrose, 1 mM EDTA (pH 8.0), 150 mM Tris-HCl, pH 7.4, 1.25 mg/mL, fatty acid free BSA), • (ii) 10 μL of compound, of present invention or standard (dissolved in DMSO and diluted to 10× with DAB and screened at 10 μM, 5 μM and 1 μM), • (iii) 60 μL DGAT1 substrate mixture taken from a 1 mL stock (16.8 nCi of ^14C oleoyl CoA and 409.5 μM or 1228.5 μM or 1638 μM of 1,2-dioleyl-sn-glycerol), • (iv) 2.5-10 μL of 1 mg/mL of microsomes (the amount of assay buffer was varied depending upon the concentration of microsome to make up the volume to 100 μL). Procedure:
The reaction was started by the addition of 2.5-10 μL of 1 mg/mL of microsomes (iv) to a mixture of (i), (ii) and (iii), vortexed and incubated at 37° C. for 10 minutes. […]
`CC(C)[C@H](NC(=O)c1cc(-c2ccc(NC(=O)Nc3cc(Cl)ccc3Oc3ccccc3)cc2)no1)C(=O)O` [Example 236, (S)-2-(3-(4-(3-(5-Chloro-2-phenoxyphenyl)ureido)phenyl)isoxazole-5-carboxamido)-3-methylbutanoic acid]: the inhibition at 1 µM fell in the range of 75 to 100%. Still for that read-out and setting: under `CC(C)[C@H](NC(=O)c1cc(-c2ccc(NC(=O)Nc3ccc(Cl)cc3C(F)(F)F)cc2)no1)C(=O)O` [Example 215, (S)-2-(3-(4-(3-(4-chloro-2-(trifluoromethyl)phenyl)ureido)phenyl)isoxazole-5-carboxamido)-3-methylbutanoic acid] stands 75 to 100%; under `CC(C)C(NC(=O)c1cc(-c2ccc(Oc3nc4ccc(F)cc4s3)cc2)no1)C(=O)O` (stereo not shown) [Example 335, 2-(3-(4-(6-fluorobenzo[d]thiazol-2-yloxy)phenyl)isoxazole-5-carboxamido)-3-methylbutanoic acid], 0 to 50%; under `Cc1ccc(NC(=O)Nc2ccc(-c3nc(C(=O)N[C@H](C(=O)O)C(C)C)cs3)cc2)cc1C` [Example 363, (S)-2-(2-(4-(3-(3,4-dimethylphenyl)ureido)phenyl)thiazole-4-carboxamido)-3-methylbutanoic acid], 0 to 50%.

Still in this test, the particulars now being: At 5 μM.
In turn, `O=C(Nc1ccc(-c2cc(C(=O)N[C@@H](CO)C(=O)O)on2)cc1)Nc1ccccc1F` [Example 299, (S)-2-(3-(4-(3-(2-Fluorophenyl)ureido)phenyl)isoxazole-5-carboxamido)-3-hydroxypropanoic acid] yielded an inhibition at 5 µM of 50 to 75%.

Still in this test, the particulars now being: At 10 μM.
In turn, `O=C(O)[C@@H]1CCCN1C(=S)c1cc(-c2cccc(Nc3nc4ccc(F)cc4s3)c2)no1` [Example 37, (S)-1-{3-[3-(6-Fluoro-benzothiazol-2-ylamino)-phenyl]-isoxazole-5-carbothioyl}-pyrrolidine-2-carboxylic acid] displayed an inhibition at 10 µM of 0 to 50%. On the same count and under the same terms, under `NC(=O)c1cc(-c2ccc(Nc3nc4ccc(F)cc4s3)cc2)no1` [Example 3, 3-[4-(6-Fluoro-benzothiazol-2-ylamino)-phenyl]-isoxazole-5-carboxylic acid amide] stands 0 to 50%. The compound `CC(C)C(NC(=O)c1cc(-c2ccc(NC(=O)Nc3c(F)cccc3F)cc2)no1)C(=O)O` (stereo not shown) [Example 124, 2-(3-(4-(3-(2,6-difluorophenyl)ureido)phenyl)isoxazole-5-carboxamido)-3-methylbutanoic acid] had an inhibition at 10 µM of 75 to 100%. Same read-out and setting: the same measure for `COC[C@H](NC(=S)c1cc(-c2ccc(Nc3nc4ccc(F)cc4s3)cc2)no1)C(=O)O` [Example 15, (S)-2-({3-[4-(6-Fluoro-benzothiazol-2-ylamino)-phenyl]-isoxazole-5-carbothioyl}-amino)-3-methoxy-propionic acid]: 50 to 75%. `COC(=O)[C@@H](NC(=S)c1cc(-c2ccc(Nc3nc4ccc(F)cc4s3)cc2)no1)C(C)C` [Example 6, (S)-2-({3-[4-(6-Fluoro-benzothiazol-2-ylamino)-phenyl]-isoxazole-5-carbothioyl}-amino)-3-methyl-butyric acid methyl ester] gave an inhibition at 10 µM of 0 to 50%.

Turning to `Cc1cc(NC(=O)Nc2ccc(F)cc2F)ccc1-c1cc(C(=O)NC(C(=O)O)C(C)C)on1` (stereo not shown) [Example 138, 2-(3-(4-(3-(2,4-difluorophenyl)ureido)-2-methylphenyl)isoxazole-5-carboxamido)-3-methylbutanoic acid], the inhibition at 10 µM was 75 to 100%. As to `COC[C@H](NC(=O)c1cc(-c2cccc(Nc3nc4ccc(F)cc4s3)c2)no1)C(=O)O` [Example 29, (S)-2-({3-[3-(6-Fluoro-benzothiazol-2-ylamino)-phenyl]-isoxazole-5-carbonyl}-amino)-3-methoxy-propionic acid], the inhibition at 10 µM is 0 to 50%. Still for that read-out and setting: under `COC[C@H](NC(=O)c1cc(-c2ccc(Nc3nc4ccc(F)cc4s3)cc2)no1)C(=O)O` [Example 13, (S)-2-({3-[4-(6-Fluoro-benzothiazol-2-ylamino)-phenyl]-isoxazole-5-carbonyl}-amino)-3-methoxy-propionic acid] stands 75 to 100%.

Source of the values: patent US8835428B2, “Diacylglycerol acyltransferase inhibitors” (Piramal Enterprises Limited, priority 2008, dated 2014).
